Data taken from ChEMBL document CHEMBL1201862, “PubChem BioAssay data set” (2004).
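96-well plates; 48 h exposure; 5 concentrations. Endpoints by linear interpolation between flanking doses. Not reached: highest tested concentration assigned. Here, GI50 denotes the concentration required for 50% inhibition of growth.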 Active and inactive are the calls of the source. Cut-off read from the data, not from the text of the source: active = GI50 up to about 1.1 µM and inactive = higher.

Experiments:
Assay in all cases: inhibition of tumour cell growth, NCI panel, 48 h
BT-549 = system: BT-549
Hs-578T = system: Hs-578T
T47D = system: T47D
LXFL 529 = system: LXFL 529
DLD-1 = system: DLD-1
SNB-78 = system: SNB-78
M19-MEL = system: M19-MEL
KM-20L2 = system: KM-20L2

Row | Structure (SMILES) | GI50 (BT-549) | GI50 (Hs-578T) | GI50 (T47D) | GI50 (LXFL 529) | GI50 (DLD-1) | GI50 (SNB-78) | GI50 (M19-MEL) | GI50 (KM-20L2)
1 | CCC(Sc1cc(Cl)c(C)cc1S(=O)(=O)Nc1nc(N)nc(N(C)C)n1)C(=O)O (stereo unspecified) | > 10 µM (inactive) | > 10 µM (inactive) | > 10 µM (inactive) |  |  |  |  | 
2 | CC1CCC(=O)C(C(O)CC2CC(=O)N(c3ccccc3)C(=O)C2)C1 (stereo unspecified) |  |  |  | > 100 µM (inactive) | > 100 µM (inactive) | > 100 µM (inactive) | > 100 µM (inactive) | > 100 µM (inactive)
3 | CC(=O)n1nnc2ccc([N+](=O)[O-])cc21 |  |  |  | > 100 µM (inactive) | > 100 µM (inactive) | > 100 µM (inactive) | > 100 µM (inactive) | > 100 µM (inactive)
4 | O=c1cnn(C/C=C\CO)c(=O)[nH]1 |  | > 100 µM (inactive) | > 100 µM (inactive) |  |  |  |  | 
5 | [N-]=[N+]=CC(=O)CCC(NC(=O)C(CCC(=O)C=[N+]=[N-])NC(=O)CCC(N)C(=O)O)C(=O)O (stereo unspecified) |  |  |  |  | > 100 µM (inactive) | > 100 µM (inactive) | > 100 µM (inactive) | > 100 µM (inactive)
6 | CC(=O)OC(C)C(=O)C1c2cccc(O)c2C(=O)c2c(O)cc(C)cc21 (stereo unspecified) |  |  |  |  | 1.75 µM (inactive) | 0.753 µM (active) | 0.367 µM (active) | 1.37 µM (inactive)
7 | CCn1c(SCC(=O)N/N=C/c2ccccc2)nc2ccccc2c1=O | 17.3 µM (inactive) | 8.41 µM (inactive) | 21.7 µM (inactive) |  |  |  |  | 
8 | C[C@]12CC[C@H](OC(=O)Cc3ccc(N(CCCl)CCCl)cc3)CC1=CC[C@@H]1[C@@H]2CC[C@]2(C)C(=O)CC[C@@H]12 | > 100 µM (inactive) | > 100 µM (inactive) | 92.5 µM (inactive) |  |  |  |  | 
9 | O=C(CC/C(C/C(=N/O)c1ccc(F)cc1)=N/O)N(Cc1ccccc1)Cc1ccccc1 |  |  |  | > 100 µM (inactive) | > 100 µM (inactive) |  | > 100 µM (inactive) | > 100 µM (inactive)
10 | COc1ccc(NC2Oc3cc4c(cc3C(c3cc(OC)c(O)c(OC)c3)C2C)OCO4)cc1 (stereo unspecified) | 10.4 µM (inactive) |  | 9.06 µM (inactive) |  |  |  |  | 
11 | CCCNC(=O)C(C)C1CCC2(C)C=CC(=O)C(C)=C2C1O (stereo unspecified) |  |  |  |  | > 100 µM (inactive) |  | > 100 µM (inactive) | > 100 µM (inactive)
12 | O=C1OC(c2ccccc2Br)=N/C1=C/c1ccccc1 |  | 31.3 µM (inactive) | > 100 µM (inactive) |  |  |  |  | 
13 | NC(Cc1cc(I)c(O)c(I)c1)C(=O)O (stereo unspecified) |  |  |  |  | 418 µM (inactive) | > 500 µM (inactive) | > 323 µM (inactive) | > 500 µM (inactive)
14 | CN(C)/C=N/CC(O)c1ccccc1 (stereo unspecified) | > 100 µM (inactive) | 28.5 µM (inactive) | > 100 µM (inactive) |  |  |  |  | 
15 | NC(=O)c1oc([N+](=O)[O-])c(-c2ccccc2)c1-c1ccccc1 | 8 µM (inactive) | 0.0752 µM (active) | 16.3 µM (inactive) |  |  |  |  | 
16 | C=C(Br)CN(C)CC(=C)Br | > 100 µM (inactive) | > 100 µM (inactive) | > 100 µM (inactive) |  |  |  |  | 

Row | Structure (SMILES) | GI50 (BT-549) | GI50 (Hs-578T) | GI50 (T47D) | GI50 (LXFL 529) | GI50 (DLD-1) | GI50 (SNB-78) | GI50 (M19-MEL) | GI50 (KM-20L2)
17 | Oc1ccc(-c2nc3ccc4ccccc4c3c3c2CCCC3)c(O)c1 | 32.7 µM (inactive) | 24.2 µM (inactive) | 7.5 µM (inactive) |  |  |  |  | 
18 | CCC1C(=O)C[C@H]2[C@@H]3C(O)CC4=CC(=O)CC[C@]4(C)[C@H]3CC[C@]12C (stereo partly specified) |  | > 50 µM (inactive) | > 50 µM (inactive) |  |  |  |  | 
19 | CC/C=C/C[C@H](O[Si](C)(C)C(C)(C)C)[C@H]1C[C@H]2O[C@H]([C@@H](O)C#C[Si](C)(C)C)C[C@H]2O1 | 19.2 µM (inactive) | 15.3 µM (inactive) | 7.55 µM (inactive) |  |  |  |  | 
20 | CCOC(=O)C(SCCO)C(C(=O)OCC)n1ccc(=O)[nH]c1=O (stereo unspecified) | > 58.7 µM (inactive) | 36.6 µM (inactive) | 38.1 µM (inactive) |  |  |  |  | 
21 | C=C1N(C)c2ccc(S(=O)(=O)c3ccc4c(c3)C(C)(C)C(=C)N4C)cc2C1(C)C | 26.1 µM (inactive) | 24.3 µM (inactive) | 24.2 µM (inactive) |  |  |  |  | 
22 | O=C(Nc1nc2c(=O)[nH]cnc2s1)c1ccccc1 | > 100 µM (inactive) | 61.5 µM (inactive) |  |  |  |  |  | 
23 | CCOC(=O)N/N=C(/N)Cc1ccccc1 | > 100 µM (inactive) | > 100 µM (inactive) | > 100 µM (inactive) |  |  |  |  | 
24 | O=C1NC(=O)C(CC2CCCCCCCCCCC2=O)C(=O)N1 (stereo unspecified) | > 100 µM (inactive) | > 100 µM (inactive) |  |  |  |  |  | 
25 | O=C(NS(=O)(=O)OCC(Cl)(Cl)Cl)SCCC(F)(F)C(F)(F)C(F)(F)C(F)(F)C(F)(F)C(F)(F)F | 49 µM (inactive) | 19 µM (inactive) | 27.9 µM (inactive) |  |  |  |  | 
26 | COc1ccc(C2c3cc4c(cc3OC(N3CCOCC3)C2C)OCO4)cc1OC (stereo unspecified) | 7.48 µM (inactive) | 3.51 µM (inactive) | 4.99 µM (inactive) |  |  |  |  | 
27 | O=C(O)CNC(=O)c1cccc2c(=O)c3ccccc3[nH]c12 | 91.8 µM (inactive) | > 100 µM (inactive) | > 100 µM (inactive) |  |  |  |  | 
28 | CSc1nc2c(c(=O)n1C)N=C(c1ccc(Cl)cc1)CC(c1ccccc1)N2 (stereo unspecified) | 24.9 µM (inactive) |  |  |  |  |  |  | 
29 | COC(=O)C1(F)C(=O)NC(=O)NC1O (stereo unspecified) |  | > 100 µM (inactive) | > 100 µM (inactive) |  |  |  |  | 
30 | CC1C2CC(C(C3C(=O)C4CC3C(C)(C)C4C)C2=O)C1(C)C (stereo unspecified) | > 100 µM (inactive) | > 100 µM (inactive) | > 100 µM (inactive) |  |  |  |  | 
31 | CC1(C)C2CCC1(C)[C@H](O)[C@H]2Nc1cc(C(F)(F)F)cc(C(F)(F)F)c1 (stereo partly specified) | 3.91 µM (inactive) |  | 2.59 µM (inactive) |  |  |  |  | 
